Results published in patent US20160235642A1, “Melanin Binding Agents for Targeted Topical Delivery” (AVON PRODUCTS, INC, priority 2013, published 2016).

Tested on: not listed separately
Test: Binding of compounds to free synthetic melanin (Example 3)
Conditions: free synthetic melanin 50 μg/mL, compound 10 μM in PBS, 37° C., 1 hour; relative percentage of compound bound, measured spectrophotometrically from compound left in solution
Procedure: Free synthetic melanin was incubated with compounds of interest in order to determine relative binding affinity of various compounds of interest to melanin. Free synthetic melanin (50 μg/mL) and compounds of interest at 10 μM concentration in PBS were incubated at 37° C. for 1 hour. After 1 hour, the synthetic melanin was removed from the solution, and the relative concentrations of the compound left in solution (i.e., not bound to the melanin) were measured spectrophometrically.

% Melanin Bound	SMILES
0%	OCC[n+]1ccccc1.[Cl-] [1-(2-Hydroxyethyl) pyridinium chloride]
6.5%	OCCc1c[nH]c2ccccc12 [3-(2-Hydroxyethyl)indole]
Not detected	Oc1cccc(O)c1O [Pyrogallol]
99.7%	O=c1c(O)c(-c2ccc(O)c(O)c2)oc2cc(O)cc(O)c12 [Quercetin]
0%	O=C(O)c1cc(O)c(O)c(O)c1 [Gallic acid]
48.6%	CCN(CC)CCCC(C)Nc1ccnc2cc(Cl)ccc12 (stereo not shown) [Chloroquine]
Not detected	CC1COC(=O)O1 (stereo not shown) [Propylene Carbonate]
Not detected	CCCCCCCCCCCCOC(=O)CCSCCC(=O)OCCCCCCCCCCCC [Dilauryl Thiodipropionate]
0%	O=C(O)/C=C/c1ccc(O)c(O)c1 [Caffeic acid]
1.5%	O=C(O)CCSCCC(=O)O [Thiodipropanoic Acid]
0%	CCCC[n+]1ccccc1.[Cl-] [1-Butylpyridinium chloride]
Not detected	O=CC[C@@H](O)[C@H](O)[C@H](O)CO [Deoxy-d-glucose]
0%	NC(=O)c1cccnc1 [Niacinamide]
5.1%	Nc1cnc2ccccc2c1 [3-Aminoquinoline]

SMILES	% Melanin Bound
Oc1ccccc1O [Pyrocatechol]	21.5%
Cl.c1ccncc1 [Pyridine hydrochloride]	0%
c1ccc2[nH]ccc2c1 [Indole]	7.3%
Cn1c(=O)c2c(ncn2C)n(C)c1=O [Caffeine]	4.4%
CCCCCCCCCCCC[n+]1ccc(N)cc1.[Cl-] [4-Amino-1-dodecyl-pyridinium chloride]	49.5%

Tested on: Melanoderm Mel-B (high concentration of melanin) and Melanoderm Mel-C (low concentration of melanin) tissue models
Test: Affinity of pyridinium compounds for melanin in Melanoderm tissue models (Example 2)
Assay type: cell-based
Conditions: Melanoderm tissue models; 1 μM and 10 μM
Source text: Affinity of pyridinium compounds for melanin in Melanoderm Mel-B (high concentration of melanin) and Melanoderm Mel-C (low concentration of melanin) tissue models.
Melanoderm Mel-B (high concentration of melanin) and Melanoderm Mel-C (low concentration of melanin) tissue models were used to determine the affinity of pyridinium compounds for melanin. Chloroquine served as a positive control and caffeic acid was a negative control for melanin binding. […] Test materials were topically applied at 0, 24 and 48 hours and tested at 1 μM and 10 μM concentration in water. Media samples were collected at 6, 24, 48, and 72 hours and tissue were lysed at 72 hours.

SMILES	melanin binding compared with the positive control (chloroquine)
CCCCCCCCCCCC[n+]1ccc(N)cc1.[Cl-] [4-Amino-1-dodecyl-pyridinium chloride]	outperformed the positive control

Same assay, conditions: Melanoderm tissue models; 10 μM versus 1 μM

SMILES	melanin binding, 10 μM compared to 1 μM concentration
CCCCCCCCCCCC[n+]1ccc(N)cc1.[Cl-] [4-Amino-1-dodecyl-pyridinium chloride]	increased melanin binding

Same assay, conditions: topically applied at 0, 24 and 48 hours, 1 μM and 10 μM in water; media at 6, 24, 48, 72 hours, tissue lysed at 72 hours; FIG. 1

SMILES	binding affinity for the 3-D tissue samples
CCCCCCCCCCCC[n+]1ccc(N)cc1.[Cl-] [4-Amino-1-dodecyl-pyridinium chloride]	strong binding affinity
